Experimental data as given in patent US20210340178A1, “NONAPEPTIDE PREVENTING INCREASED HYPERPERMEABILITY OF VASCULAR ENDOTHELIUM” (FEDERALNOYE GOSUDARSTVENNOE BUDGETNOE UCHREZHDENIE …, priority 2018, published 2021).
pIC50: −log10 of the molar value. “Also recorded” adds a separate entry of the source. Read-outs that look alike come from different tables or passages of the source. Non-standard residues stand in square brackets, D forms with d. Residues, ends and D or L forms follow the SMILES beside them. NMeR = CN[C@@H](CCCNC(=N)N)C(=O)O

Legend:
[1] = Peptide half-lives in human plasma in vitro (1H-NMR spectroscopy); assay type: in vitro ADME; details: human, plasma, 1H-NMR, 37° C., peptide 3 mg/ml; read-out: T1/2, half-life in human plasma in vitro
Experimental: Whole blood (100 mL) was collected from healthy donors to 50-mL tubes containing 5 mL of a preservative (130 mM citrate in phosphate buffered saline (PBS), pH 7.4). The blood was incubated for 15-20 min at room temperature followed by centrifugation at 1500 g for 15 min at 18° C. The supernatants were transferred to clear tubes and centrifuged as above. Dry NaBr was added to the plasma (280 mg per 1 mL of plasma). After dissolution of NaBr, the plasma (approx. 30 mL) was transferred to centrifuge tubes (Type 45Ti rotor, Beckman, USA) and layered with 20 mL of a solution (specific mass of […]), which was prepared as follows—11.42 g of NaCl and 100 mg of ethylenediaminetetraacetic acid (EDTA) were dissolved in distilled water in a final volume of 1 L (pH 7.4) and 281.44 g of NaBr was added. The plasma was centrifuged at 40,000 rpm for 48 hrs. The upper dark-yellow fraction containing lipoproteins and the colorless buffer fraction were discarded leaving approx. 1-cm high buffer above the apparent plasma border. Portions of plasma obtained from one donor were pooled and dialyzed for 36 hrs against 4 L of PSB free of Ca^2+ and Mg^2+(MP Biomedicals, USA) in dialysis bags with 12-14 kDa pore sizes. The dialysis procedure was repeated twice with fresh buffer changed every 24 hrs. After the dialysis, the plasma was centrifuged at 25,000 rpm (Type 45Ti rotor, Beckman, USA) for 15 min at 4° C. The supernatant fraction was collected and lyophilized. The dry matter was dissolved in D2O in a final volume equal to the plasma volume before NaBr was added, lyophilized again, dissolved in the same volume of D2O, and stored in 1-mL aliquots at −20° C. before use.
^1H-NMR spectroscopy was employed to analyze relative degradation of PIK7 (the claimed peptide) and MLC11-19 (the structural analogue) in human plasma. ^1H-NMR spectroscopy allows simultaneous direct monitoring the amounts of original full-length peptide and its fragments during the course of enzymatic hydrolysis (Isakova et al., 1986). Stability of a peptide, its degradation pathway(s) and a half-life estimate are available from a comparison of spectra obtained at different time points after the addition of a peptide to plasma. ^1H-NMR spectra were obtained using a WM-500 spectrometer (Bruker, Germany) at 37° C. Chemical shifts in ^1H-NMR spectra were measured relative to an internal standard (2,2-dimethyl-2-silapentane-5-sulfonate sodium salt). The signals were referenced by the double-resonance method. The resonances from peptide protons were identified by the differential spectroscopy method, i.e. the spectrum of blood plasma was subtracted from each spectrum obtained in the presence of peptide of interest. Peptide concentrations were 3 mg/ml.
These indicate the peptide N-terminus degradation. […] Therefore, the claimed peptide has an increased life-span in plasma that allows for long-lasting maintenance of its effective concentrations necessary to decrease the endothelial hyperpermeability under emergency conditions. Moreover, an increased life-time allows attaining the desired therapeutic effect with lower (as compared to homologues) peptide concentrations.

[2] = test system: EA.hy926 endothelial cell monolayer; test: Thrombin-mediated FITC-dextran permeability through endothelial cell monolayer; assay type: cell-based; details: peptide 100 μM, 60 min preincubation; thrombin 100 nM; 70 kDa FITC-dextran
Experimental: FIG. 3. The thrombin-mediated FITC-dextran permeability through the EA.hy926 endothelial cell monolayer in the presence of myosin light chain kinase peptide inhibitors. Thrombin (100 nM) was added at 0 min, the cells were preincubated for 60 min with MLCK peptide inhibitors (100 μM). Data are presented as mean±SD, n=5. p<0.05 for all data points within the 20-180 min time course range as compared to the thrombin-stimulated control.
Effects of the claimed peptide (PIK7), the prototype (PIK2), and the analogue (MLC11-19) on the endothelial permeability was assayed in a model of FITC-dextran diffusion through the endothelial monolayer as described in Example 3.
Cells were grown in 24-well plates (Greiner Bio-one, Austria) equipped with special inserts to form inner (upper) chambers with a porous bottom (the pore diameter of 0.4 μm, pore density of 10^8/cm^2) in DMEM until monolayer was formed (3-4 days). Successful monolayer was checked by measuring FITC-dextran diffusion for 1 hour through inserts with cell monolayers vs inserts without cells (‘blank’ inserts). Experiments were performed in triplicates when tight monolayers were formed. On the day of experiment, the cells were deprived for 1 h in DMEM supplemented with MLCK inhibitors or without inhibitors (control). After deprivation, FITC-dextran was added to the upper compartment to a final concentration of 0.05 mg/ml. In 30 and 60 min, a 10-μ1 aliquot was withdrawn from the lower compartment and mixed with 100 μl phosphate buffered saline pH 7.3 in a 96-well plate to estimate the endothelial monolayer baseline permeability. […] During the next 3 hrs, every 30 min, aliquots were taken from the lower compartment, and intensity of FITC fluorescence was measured using a Victor 3X plate reader (Perkin Elmer, USA) to plot the dynamics of the FITC fluorescence changes.
As shown, 100 nM thrombin induces the endothelial hyperpermeability response as reflected by an increase in 70 kDa FITC-dextran diffusion through the endothelial monolayer and an incremental increase in the fluorescence in the lower compartment of the diffusion chamber. […]

[3] = test system: MLC phosphorylation in neutrophils; details: Chilcoat et al., 2008; cited from earlier work
[4] = molecular target: smooth-muscle myosin light-chain kinase; details: Hunt et al., 1989; cited from earlier work
MLCK = MLCK (Homo sapiens, UniProt Q15746); details: in vitro; Sekridova et al., 2010 / RU 2402565; cited from earlier work
[5] = cited from earlier work
[6] = test system: endothelial hyperpermeability; details: cited from earlier work
[7] = Acute toxicity in mice, single injection; assay type: in vivo; details: mouse, in vivo
Experimental: (§1) The study was conducted in 82 BALB/c mice (both males and females, body weight 18-24 g) obtained from the animal facility of the Scientific Center for Biomedical Technologies of the Federal Medico-Biological Agency of the Russian Federation (SCBMT). The animals were certified and otherwise healthy. The animals were kept in T-3 cages (5-10 animals per cage) with artificial 12 hrs light-dark cycles and 16× per hour forced air ventilation, temperature of 20-22° C. and 50-65% humidity on wood chips sterilized by hot air. The animals had free access to drinking water and PK-120-1 mouse cubes (GOST P50258-92; Laboratorsnab LLC, Russia).
(§2) PIK2 and PIK7 peptides were dissolved in water and administered to mice as a single intraperitoneal injection. The animals were followed for 14 days after peptide injections. An increasing dosage scheme was applied where each tested dose surpassed the previous dose by 50%. The lowest dose of the active substance was determined that caused animal death.

BALB/c mice = test: Acute toxicity in mice, single injection; assay type: in vivo
Experimental: as §1, §2

[8] = rabbit, in vivo, iv
Experimental: (§3) PIK2 dose of 5 mg/kg was calculated individually for each rabbit and administered into marginal ear vein in a final volume of 1.7-1.9 mL in sterile physiological saline. Stock concentration of the tested substance was 10 mg/mL.
(§4) During the 24-hrs testing period, the overall health status and behavior were monitored (appetite, motion activity, hair coat condition).
(§5) Before injection of test substances (baseline) and 4 hrs and 24 hrs after the injection, the following parameters were tested in whole venous blood samples (3.0-3.5 mL) collected from a marginal ear vein red blood cell (RBC) count, hematocrit, hemoglobin level, mean RBC volume, mean corpuscular hemoglobin, total leukocyte, lymphocyte, and granulocyte counts and their percentages, platelet count, and mean platelet volume. In parallel, the following biochemical parameters were measured in serum total protein, bilirubin, urea, creatinine, glucose, total cholesterol, triglycerides, and activities of alkaline phosphatase, lactate dehydrogenase, aspartate aminotransferase, and alanine aminotransferase. Blood cell count was performed using an Abacus junior vet (Austria) hematological cell counter; biochemical studies were performed using a Targa-2000 (Italy) instrument.

lung edema in rats = details: cited from earlier work
in vivo = details: male, Chinchilla, rabbit, 5 mg/kg
Experimental: as §3, §4, §5

Chinchilla rabbits = test: Tolerance of a single intravenous injection in Chinchilla rabbits; details: i.v. 5 mg/kg
Experimental: as §3, §4, §5

For “H-KKRAARATS-NH2 [MLC11-19, H-Lys-Lys-Arg-Ala-Ala-Arg-Ala-Thr-Ser-NH2]”, the half-life [1] is given as 32 min, the “effect on thrombin-induced FITC-dextran hyperpermeability” value [2] is given as “completely abolished the FITC-dextran hyperpermeability; also recorded: effectively abolished FITC-dextran hyperpermeability” and the “effect on MLC phosphorylation in neutrophils” value [3] is given as “decreases MLC phosphorylation in neutrophils”.
For “H-D-Lys-Lys-Arg-Ala-Ala-Arg-NH2 (H-[dK]KRAAR-NH2; SMILES C[C@H](NC(=O)[C@H](C)NC(=O)[C@H](CCCNC(=N)N)NC(=O)[C@H](CCCCN)NC(=O)[C@H](N)CCCCN)C(=O)N[C@@H](CCCNC(=N)N)C(N)=O) [RLC 11-16 hexapeptide with N-terminal L-Lys substituted with D-Lys]”, the pIC50 [4] is given as 3.74.
In the case of “H-MeArg^1-Lys-Lys-Tyr-Lys-Tyr-Arg-Arg-Lys-NH2 (H-[NMeR]KKYKYRRK-NH2) [PIK1, L-PIK modified at the N-terminal amino acid]”, the “inhibitory activity compared to L-PIK” value (MLCK) is listed as “comparable to that of L-PIK”, the “half-life in human plasma in vitro, fold higher as compared to L-PIK” value ([5]; RU 2402565) is listed as roughly 3 fold and the “inhibition of thrombin-mediated endothelial hyperpermeability” value ([6]; peptide 100 μM) is listed as 1.6 fold.
With `CN[C@@H](CCCNC(=N)N)C(=O)N[C@@H](CCCCN)C(=O)N[C@@H](CCCCN)C(=O)N[C@@H](Cc1ccc(O)cc1)C(=O)N[C@@H](CCCCN)C(=O)N[C@@H](Cc1ccc(O)cc1)C(=O)N[C@@H](CCCNC(=N)N)C(=O)N[C@H](CCCNC(=N)N)C(=O)N[C@@H](CCCCN)C(N)=O` [PIK2, H—(N—Me)-Arg^1-Lys-Lys-Tyr-Lys-Tyr-Arg^7-D-Arg^8-Lys-NH2] (H-[NMeR]KKYKYR[dR]K-NH2) the “effect on thrombin-induced FITC-dextran hyperpermeability” value [2] was “completely abolished the FITC-dextran hyperpermeability; also recorded: effectively abolished FITC-dextran hyperpermeability”, the LD50 at 14 days ([7]; both sexes, BALB/c, intraperitoneal, mice, Table 3) was 18 mg/kg and the LD50 ([7]; after single intravenous injection (as printed in b7), read-out: LD50 in mice) was 18 mg/kg. For the same compound, the “lowest dose of the active substance that caused animal death” value (BALB/c mice; BALB/c mice, single intraperitoneal injection, followed 14 days) was 27 mg/kg, the “signs after a toxic dose” value (BALB/c mice; mice, single intraperitoneal injection of a toxic dose) was “movement retardation and death within the following 24 hrs” and the LD50 [8] was no more than 5 mg/kg. For the same compound, the “T1/2, half-life in human plasma in vitro” value ([5]; Khapchaev et al., 2016) was greater than 540 min, the “stability, fold higher as compared to PIK1” value ([5]; RU 2493164) was 4 fold and the “effect on thrombin-mediated endothelial hyperpermeability in vitro” value ([6]; peptide 20 μM) was “completely abolished the thrombin-mediated endothelial hyperpermeability”. The “effect on endothelial hyperpermeability response and lung edema” value (lung edema in rats) was “abrogation of the endothelial hyperpermeability response and lung edema in rats”, the LD50 at 24 h (in vivo) was 5 mg/kg and the mortality (Chinchilla rabbits; group of 4) was “two rabbits died on the 7th and 10th minute”. The “clinical signs after injection” value (Chinchilla rabbits; second minute after injection) was “irregular breathing, shortness of breath, muscular stiffness, prone position with straighten extremities”.
For “H-L-Lys-Lys-Arg-Ala-Ala-Arg-NH2 (H-KKRAAR-NH2)”, the pIC50 [4] is listed as 4.66.
